Marks after values point to notes of the source that are not given here.
Assay: Phase I trial pharmacokinetics, single i.v. ascending doses
Format: in vivo, human
Conditions: human; for AUC(0-∞) Mean / AUC(0-∞) Min-max / C5min Min-max / CL Mean / CL Min-max / Cmax Mean / Cmax Min-max / Terminal t1/2 Mean / Terminal t1/2 Min-max / Vz Mean / Vz Min-max / C5min Mean: single i.v., liposomes
Protocol: A randomized, double-blind, placebo controlled study was performed to investigate the safety, tolerability and pharmacokinetics of single i.v. ascending doses of TRO40303 in healthy male and post-menopausal female subjects. The choice of the dose and flow rate escalation process is explained in the Result section. Seventy-two healthy volunteers were randomized, with 18 receiving a placebo and 54 an active liposomal formulation containing 20 mg/mL TRO40303 at final doses ranging from 0.5, 1, 2, 3.5, 6, 10 to 13 mg/kg with escalating flow rates from 0.04 mL/min to 35 mL/min. Within each group, 3 or 6 subjects received TRO40303 and 1 or 2 subjects received the same volume of placebo. The sample size was based on the number of doses and flow rates to be investigated. The 6 verum/2 placebo ratio per group is widely used in single ascending dose studies and provides adequate safety and pharmacokinetic information. The 3 verum/1 placebo ratio used in the last groups was chosen only to explore additional flow rates at previously studied doses.
Venous blood samples (5 mL) were collected for determination of TRO40303 concentrations in plasma at pre-dose, end of infusion, then 5 min, 15 min, 30 min, 1 h, 2 h, 4 h, 8 h, 12 h, 16 h, 24 h, 48 h, 72 h and 96 h post end of infusion into heparin–lithium Vacutainer tubes. The blood samples were gently inverted then centrifuged in a refrigerated centrifuge (+4°C) within 30 min after sampling at 1500 g for ca 10 min. The resulting plasma was frozen in two separate labelled polypropylene tubes at –20 ± 5°C until assaying.
For the quantifying TRO40303 levels in human plasma samples, the same method, GLP validated, was used and the analysis was performed at Bertin Pharma (Orleans, France). Analysis was carried out on 1200 Series (Agilent) and Series 200 (Perkin Elmer) systems interfaced to an API 4000 (AB Sciex) MS detector. Calculations were carried out with Analyst 1.4.1 and 1.5.1 (AB Sciex) software.

CC(C)CCC[C@@H](C)[C@H]1CC[C@H]2[C@@H]3CC/C(=N\O)[C@](C)(CCCO)[C@H]3CC[C@]12C [TRO40303, 3,5-seco-4-nor-cholestan-5-one oxime-3-ol]
dose proportionality of Cmax and AUC(0-∞) (from 0.5 to 6 mg/kg): linear | hyper-proportionality of Cmax and AUC(0-∞) (from 6 to 13 mg/kg): ~ 1.5 fold | AUC(0-∞) Mean (0.5 mg/kg, n = 4): 15.5* μg.h/mL | AUC(0-∞) Min-max (0.5 mg/kg, n = 4): 9130 to 20900 ng·h/mL | C5min Min-max (0.5 mg/kg, n = 6): 1.59 to 3.92 µg/mL | CL Mean (0.5 mg/kg, n = 6): 0.598 mL/min/kg | CL Min-max (0.5 mg/kg, n = 6): 0.399 to 0.912 mL/min/kg | Cmax Mean (0.5 mg/kg, n = 6): 3320 ng/mL | Cmax Min-max (0.5 mg/kg, n = 6): 2310 to 4850 ng/mL | Terminal t1/2 Mean (0.5 mg/kg, n = 6): 29.5 h | Terminal t1/2 Min-max (0.5 mg/kg, n = 6): 27.0 to 31.5 h | Vz Mean (0.5 mg/kg, n = 6): 1.54 L/kg | Vz Min-max (0.5 mg/kg, n = 6): 0.00103 to 0.00249 L/kg | C5min Mean (0.5 mg/kg, n = 6, 5 min post end of infusion): 2.58 µg/mL | AUC(0-∞) Mean (1 mg/kg, n = 6): 34.5 µg·h/mL | AUC(0-∞) Min-max (1 mg/kg, n = 6): 21000 to 43000 ng·h/mL | C5min Min-max (1 mg/kg, n = 6): 5.98 to 12.5 µg/mL | CL Mean (1 mg/kg, n = 6): 0.509 mL/min/kg | CL Min-max (1 mg/kg, n = 6): 0.388 to 0.792 mL/min/kg | Cmax Mean (1 mg/kg, n = 6): 10300 ng/mL | Cmax Min-max (1 mg/kg, n = 6): 6060 to 14100 ng/mL | Terminal t1/2 Mean (1 mg/kg, n = 6): 25.1 h | Terminal t1/2 Min-max (1 mg/kg, n = 6): 22.9 to 26.8 h | Vz Mean (1 mg/kg, n = 6): 1.11 L/kg | Vz Min-max (1 mg/kg, n = 6): 0.000899 to 0.00177 L/kg | C5min Mean (1 mg/kg, n = 6, 5 min post end of infusion): 9.26 µg/mL | C5min Min-max (2 mg/kg, n = 5): 16.7 to 26.8 µg/mL | C5min Mean (2 mg/kg, n = 5, 5 min post end of infusion): 23.6** μg/mL | AUC(0-∞) Mean (2 mg/kg, n = 6): 68.6 µg·h/mL | AUC(0-∞) Min-max (2 mg/kg, n = 6): 50700 to 81500 ng·h/mL | CL Mean (2 mg/kg, n = 6): 0.499 mL/min/kg | CL Min-max (2 mg/kg, n = 6): 0.409 to 0.657 mL/min/kg | Cmax Mean (2 mg/kg, n = 6): 23100 ng/mL | Cmax Min-max (2 mg/kg, n = 6): 16000 to 31100 ng/mL | Terminal t1/2 Mean (2 mg/kg, n = 6): 26.4 h | Terminal t1/2 Min-max (2 mg/kg, n = 6): 24.3 to 28.7 h | Vz Mean (2 mg/kg, n = 6): 1.14 L/kg | Vz Min-max (2 mg/kg, n = 6): 0.00091 to 0.00152 L/kg | AUC(0-∞) Mean (3.5 mg/kg, n = 9): 109 µg·h/mL | AUC(0-∞) Min-max (3.5 mg/kg, n = 9): 81000 to 163000 ng·h/mL | C5min Min-max (3.5 mg/kg, n = 9): 37.1 to 68.7 µg/mL | CL Mean (3.5 mg/kg, n = 9): 0.560 mL/min/kg | CL Min-max (3.5 mg/kg, n = 9): 0.357 to 0.721 mL/min/kg | Cmax Mean (3.5 mg/kg, n = 9): 51700 ng/mL | Cmax Min-max (3.5 mg/kg, n = 9): 37700 to 68700 ng/mL | Terminal t1/2 Mean (3.5 mg/kg, n = 9): 25.1 h | Terminal t1/2 Min-max (3.5 mg/kg, n = 9): 23.1 to 27.7 h | Vz Mean (3.5 mg/kg, n = 9): 1.22 L/kg | Vz Min-max (3.5 mg/kg, n = 9): 0.000723 to 0.00152 L/kg | C5min Mean (3.5 mg/kg, n = 9, 5 min post end of infusion): 50.2 µg/mL | AUC(0-∞) Mean (6 mg/kg, n = 11): 229*** μg.h/mL | AUC(0-∞) Min-max (6 mg/kg, n = 11): 147000 to 307000 ng·h/mL | C5min Min-max (6 mg/kg, n = 12): 51.6 to 266 µg/mL | CL Mean (6 mg/kg, n = 12): 0.460 mL/min/kg

Reference: paper PMC3923730 (Journal of Translational Medicine, 2014)
